Measured values from ChEMBL document CHEMBL6120971 (J Med Chem, 2024).
The source made the active and inactive calls. The calls are words filed in the database; no cut-off is given here.

Key:
[1] = system: MKN-45; test: Downregulation of SLC7A1 protein level in human MKN-45 cells by MS-based quantitative proteomics analysis; format: functional, cell-based
[2] = system: MKN-45; test: Downregulation of KPNA2 protein level in human MKN-45 cells by MS-based quantitative proteomics analysis; format: functional, cell-based
[3] = molecular target: von Hippel-Lindau disease tumor suppressor/Importin subunit alpha-1 (Homo sapiens) (UniProt P52292+P40337); test: PROTAC activity at VHL/KPNA2 in human MKN-45 cells assessed as induction of c-MET degradation at 6.25 to 100 nM incubated for 24 hrs by Western blot analysis; format: cell-based; conditions: dose 6.25-100 nM
[4] = system: MKN-45; test: Upregulation of PDCD4 protein level in human MKN-45 cells by MS-based quantitative proteomics analysis; format: functional, cell-based
[5] = molecular target: T1, von Hippel-Lindau disease tumor suppressor/Hepatocyte growth factor receptor (Homo sapiens, UniProt P08581+P40337); test: PROTAC activity at VHL/c-MET in human MKN-45 cells assessed as induction of c-MET degradation by measuring residual activity at 100 nM incubated for 24 hrs by Western blot analysis (reference value: 100 %); format: cell-based
[6] = molecular target: T1, von Hippel-Lindau disease tumor suppressor/Hepatocyte growth factor receptor; test: PROTAC activity at VHL/c-MET in human MKN-45 cells assessed as induction of c-MET degradation at 6.25 to 100 nM incubated for 24 hrs by Western blot analysis; format: cell-based; conditions: dose 6.25-100 nM
[7] = system: MKN-45; test: Antiproliferative activity against human MKN-45 cells incubated for 72 hrs by CCK8 assay; format: functional, cell-based; conditions: MKN-45, 72 h
[8] = molecular target: Protein cereblon/Hepatocyte growth factor receptor (Homo sapiens, UniProt P08581+Q96SW2); test: PROTAC activity at CRBN/c-MET in human MKN-45 cells assessed as induction of c-MET degradation incubated for 72 hrs by Western blot analysis; format: cell-based
[9] = Tmax in Wistar rat at 20 mg/kg, po measured after 24 hrs by UPLC-MS/MS analysis; format: ADME, organism-based; conditions: in vivo
[10] = Toxicity in BALB/c nude mouse xenografted with human MKN-45 cells assessed as effect on liver morphology at 10 mg/kg, po administered once daily for 21 days by H and E staining based analysis; format: organism-based; conditions: in vivo, 504 h, time 21 day
[11] = Toxicity in BALB/c nude mouse xenografted with human MKN-45 cells assessed as effect on heart morphology at 10 mg/kg, po administered once daily for 21 days by H and E staining based analysis; format: organism-based; conditions: in vivo, 504 h, time 21 day
[12] = Toxicity in BALB/c nude mouse xenografted with human MKN-45 cells assessed as body weight loss at 10 mg/kg, po administered once daily for 21 days; format: organism-based; conditions: in vivo, 504 h, time 21 day
[13] = system: MKN-45; test: Induction of c-MET degradation in human MKN-45 cells assessed as residual activity at 100 nM incubated for 24 hrs by Western blot analysis (reference value: 100 %); format: cell-based
[14] = Toxicity in BALB/c nude mouse xenografted with human MKN-45 cells assessed as effect on lung morphology at 10 mg/kg, po administered once daily for 21 days by H and E staining based analysis; format: organism-based; conditions: in vivo, 504 h, time 21 day
[15] = Half-life in Wistar rat at 20 mg/kg, po measured after 24 hrs by UPLC-MS/MS analysis; format: ADME, organism-based; conditions: in vivo
[16] = Toxicity in BALB/c nude mouse xenografted with human MKN-45 cells assessed as effect on spleen morphology at 10 mg/kg, po administered once daily for 21 days by H and E staining based analysis; format: organism-based; conditions: in vivo, 504 h, time 21 day
[17] = AUC (0 to infinity) in po dosed rat; format: ADME, organism-based; conditions: in vivo
[18] = Toxicity in BALB/c nude mouse xenografted with human MKN-45 cells assessed as effect on kidney morphology at 10 mg/kg, po administered once daily for 21 days by H and E staining based analysis; format: organism-based; conditions: in vivo, 504 h, time 21 day
[19] = Cmax in po dosed rat; format: ADME, organism-based; conditions: in vivo
[20] = system: MKN-45; test: Downregulation of prothymosin-alpha protein abundance in human MKN-45 cells by MS-based quantitative proteomics analysis; format: functional, cell-based
[21] = system: MKN-45; test: Downregulation of HMGCS1 protein level in human MKN-45 cells by MS-based quantitative proteomics analysis; format: functional, cell-based
[22] = system: HCC1954; test: Antiproliferative activity against human HCC1954 cells incubated for 72 hrs by MTT assay; format: functional, cell-based; conditions: HCC1954, 72 h
[23] = molecular target: T1, von Hippel-Lindau disease tumor suppressor/Hepatocyte growth factor receptor; test: PROTAC activity at VHL/c-MET (unknown origin); format: protein

Structure (SMILES): Cc1ncsc1-c1ccc([C@H](C)NC(=O)[C@@H]2C[C@@H](O)CN2C(=O)[C@@H](NC(=O)CCCCCCCCC(=O)N2CCC(n3cc(-c4cnc(N)c(O[C@H](C)c5c(Cl)ccc(F)c5Cl)c4)cn3)CC2)C(C)(C)C)cc1
- Activity [1]: Active
- Activity [2]: Active
- Activity [3]: Active
- Activity [4]: Active
- Activity [5]: 64%
- Activity [6]: Active
- IC50 [7]: 0.0707 µM

Structure (SMILES): C[C@@H](Oc1cc(-c2cnn(C3CCN(C(=O)CCCCCCCOc4cccc5c4C(=O)N(C4CCC(=O)NC4=O)C5=O)CC3)c2)cnc1N)c1c(Cl)ccc(F)c1Cl (some centres not stated)
- DC50 [8]: > 0.1 µM
- IC50 [7]: 0.347 µM

Structure (SMILES): CNC(=O)c1ccc(-c2cnc3ncc(Cc4ccc5ncccc5c4)n3n2)cc1F [CAPMATINIB]
- Tmax [9]: 0.5 h
- Activity [10]: Non-toxic
- Activity [11]: Non-toxic
- Activity [12]: Non-toxic
- Activity [13]: 112%
- Activity [14]: Non-toxic
- half-life [15]: 4.09 h
- Activity [16]: Non-toxic
- AUC(0-inf) [17]: 10400 ng·h/mL
- Activity [18]: Non-toxic
- Cmax [19]: 3820 ng/mL

Structure (SMILES): Cc1ncsc1-c1ccc([C@H](C)NC(=O)[C@@H]2C[C@@H](O)CN2C(=O)[C@@H](NC(=O)CCCCCCCCC(=O)N2CCC(COc3cnc(-c4cccc(Cn5nc(-c6cccc(C#N)c6)ccc5=O)c4)nc3)CC2)C(C)(C)C)cc1
- Activity [20]: Active
- Activity [4]: Active
- Activity [5]: 50%
- IC50 [7]: 0.102 µM
- Activity [21]: Active

Structure (SMILES): COc1cc2c(Oc3ccc(NC(=O)C4(C(=O)Nc5ccc(F)cc5)CC4)cc3)ccnc2cc1OCCCOCCCOCCC(=O)N[C@H](C(=O)N1C[C@H](O)C[C@H]1C(=O)NCc1ccc(-c2scnc2C)cc1)C(C)(C)C
- IC50 [22]: 6.7 µM
- DC50 [23]: > 1.11 µM
